Measurements: publication PMC11809180, “RA-PR058, a novel ramalin derivative, reduces BACE1 expression and phosphorylation of tau in Alzheimer’s disease mouse models” (Animal Cells and Systems, 2025)

Columns and labels:
[1] = test system: 5xFAD hippocampal neurons; test: vGlut1-pHluorin (vG-pH) synaptic transmission assay in primary hippocampal neurons; type: cell-based, mouse
Protocol: Hippocampal CA1-CA3 regions were isolated from postnatal (0–3 d old) 5xFAD mice. For dissociation, the dissected tissues were incubated with trypsin (Sigma) and DNase (Sigma) for 10 minutes at 37 ℃, followed by gentle trituration with pipette. 4.0–5.0 × 10^4 cells were plated on poly-ornithine-coated coverslips. Cells were maintained in culture media consisting of Neurobasal™-A Medium (Gibco) supplemented with GlutaMAX™ Supplement (Gibco) and B-27™ Supplement (Gibco) in a humidified incubator set at 37 ℃ with 5% CO2. Neurons were transfected 7 days after plating and further incubated for 14–21 days in culture medium. All results are obtained from at least three independent primary cultures. […]
For optical imaging, primary cultured hippocampal neurons were transfected with vGlut1-pHluorin (vG-pH) using the Ca^2+ phosphate precipitation method, as previously described (Bae et al. ([2020])). […] Fluorescence excitation/emission and collection were achieved using a 40 × Fluar Zeiss objective lens (1.3 NA) and 500–550 nm emission and 498 nm dichroic filters (Chroma). […]
All images were analyzed using ImageJ with plugin Time Series Analyzer. Synaptic boutons were selected as oval regions of interest (diameter, 10 pixels), and the intensity of fluorescence at synapses was measured. Fluorescence traces were analyzed using Origin Pro.

[2] = test system: cytochrome P450 (CYP) isoforms (CYP1A2, CYP2C9, CYP2C19, CYP2D6, and CYP3A); test: Cytochrome P450 inhibition assay in human liver microsomes; type: in vitro ADME; conditions: 10 μM RA-PR058, 20 minutes 37 ℃, with NADPH regenerating system
Protocol: Inhibitory potentials of RA-PR058 on cytochrome P450 (CYP) isoforms (CYP1A2, CYP2C9, CYP2C19, CYP2D6, and CYP3A) were evaluated. This assay was conducted by SPMED Co., Ltd (Republic of Korea). Human liver microsomes were incubated at 37 ℃ for 20 minutes with phosphate buffer (pH 7.4), each CYP substrate (for CYP1A2: phenacetin, CYP2C9: diclofenac, CYP2C19: S-mephenytoin, CYP2D6: dextromethorphan, CYP3A: midazolam), and 10 μM of RA-PR058 in the presence of an NADPH regenerating system. The reaction was terminated by adding an acetonitrile solution containing an internal standard. Following reaction termination, samples were centrifuged, and the supernatant was injected into an LC-MS/MS system to analyze the metabolites of each substrate drug.

Microsomal stability = type: in vitro ADME; conditions: human, mouse, rat, dog, monkey, liver microsomes, 30 minutes 37 ℃, with and without NADPH, across all microsomes tested
Protocol: The metabolic stability of RA-PR058 was evaluated using liver microsomes from humans and various animal species at 37 ℃. This assay was carried out by SPMED Co., Ltd (Republic of Korea). The test was initiated by adding the 1 μM of RA-PR058 to liver microsomes in the presence or absence of an NADPH regenerating system. After incubation at 37 ℃ for 30 minutes, acetonitrile containing an internal standard was added to each sample to terminate the reaction. Samples were then centrifuged, and the supernatant was analyzed by LC-MS.

**Q.** What does the source list for Cl.N[C@@H](CCC(=O)NNc1ccccc1F)C(F)F [RA-PR058, (S)-4-amino-5,5-difluoro-N'-(2-fluorophenyl)pentanehydrazide hydrochloride]?
**A.** Recovery of synaptic transmission dysfunction ([1]; 5xFAD hippocampal neurons, 10 μM RA-PR058, 100 AP at 10 Hz, did not reach statistical significance): partially recovered; Mean amplitude of 100AP vG-pH response ([1]; RA-PR058 treated 5xFAD hippocampal neurons, 10 Hz for 10 s, normalized to maximal NH4Cl response, mean ± SEM, n = 6, untreated 5xFAD 0.11 ± 0.01, WT 0.20 ± 0.01): 0.15 ± 0.03; Decrease in mean control activity of CYP isoforms [2]: 12%; remaining at 0.5 h, 1 μM (Microsomal stability): > 90%
